Source: US12256759B2, “Methods for the reduction of methane production in ruminants” (Loam Bio Pty Ltd, priority 2021, dated 2025)

Legend:
methane production = conditions: among antimethanogenic compounds found in A. taxiformis; cited from earlier work
[1] = target: T1, methyl-coenzyme M reductase (MCR) (Methanothermobacter marburgensis, UniProt P11558); conditions: prevents the final catalysis step of methanogenesis; cited from earlier work
T1 sequence (P11558 1-550): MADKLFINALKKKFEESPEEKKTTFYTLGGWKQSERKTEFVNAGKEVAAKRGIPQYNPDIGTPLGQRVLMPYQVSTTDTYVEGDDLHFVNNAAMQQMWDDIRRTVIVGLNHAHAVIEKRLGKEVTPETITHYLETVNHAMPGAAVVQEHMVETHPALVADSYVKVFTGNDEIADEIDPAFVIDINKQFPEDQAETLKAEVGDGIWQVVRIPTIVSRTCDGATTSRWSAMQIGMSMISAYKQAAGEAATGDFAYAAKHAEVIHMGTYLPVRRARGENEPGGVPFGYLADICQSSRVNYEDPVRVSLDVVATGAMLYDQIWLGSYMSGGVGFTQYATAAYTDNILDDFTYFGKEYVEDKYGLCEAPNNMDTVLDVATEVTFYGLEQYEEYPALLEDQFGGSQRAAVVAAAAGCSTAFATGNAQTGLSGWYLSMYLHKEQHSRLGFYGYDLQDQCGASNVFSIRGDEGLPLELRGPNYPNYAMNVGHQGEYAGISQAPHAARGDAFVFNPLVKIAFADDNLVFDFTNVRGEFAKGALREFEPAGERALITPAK
T1 sequence (P11560 1-443 partner): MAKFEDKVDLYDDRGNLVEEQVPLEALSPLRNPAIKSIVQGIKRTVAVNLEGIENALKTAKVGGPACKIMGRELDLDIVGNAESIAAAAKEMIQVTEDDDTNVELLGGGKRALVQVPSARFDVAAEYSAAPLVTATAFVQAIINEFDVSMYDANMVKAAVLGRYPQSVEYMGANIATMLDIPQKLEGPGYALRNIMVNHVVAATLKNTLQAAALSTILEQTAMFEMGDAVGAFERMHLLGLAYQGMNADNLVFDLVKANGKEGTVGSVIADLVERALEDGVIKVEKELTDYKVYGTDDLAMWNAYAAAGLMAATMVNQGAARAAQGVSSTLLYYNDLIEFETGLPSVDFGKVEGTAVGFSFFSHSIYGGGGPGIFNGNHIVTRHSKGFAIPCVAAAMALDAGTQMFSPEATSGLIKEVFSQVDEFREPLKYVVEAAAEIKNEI
T1 sequence (P11562 1-249 partner): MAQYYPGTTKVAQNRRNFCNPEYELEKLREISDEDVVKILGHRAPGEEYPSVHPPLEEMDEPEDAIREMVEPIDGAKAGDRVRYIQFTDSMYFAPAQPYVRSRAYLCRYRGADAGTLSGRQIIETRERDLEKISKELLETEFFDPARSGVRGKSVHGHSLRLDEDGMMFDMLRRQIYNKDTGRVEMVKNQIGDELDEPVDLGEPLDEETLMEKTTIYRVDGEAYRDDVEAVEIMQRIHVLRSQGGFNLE

[2] = tested on: Methanobrevibacter smithii; conditions: 100 ul chloroform, positive control

SMILES | activity at inhibiting methane production (methane production) | mode of action on methyl-coenzyme M reductase (MCR) [1] | inhibition of methane production [2]
BrC(Br)Br [bromoform] | highest activity at inhibiting methane production | competitive inhibitor or analog | –
ClC(Br)Br [dibromochloromethane] | highest activity at inhibiting methane production | – | –
ClC(Cl)Cl [chloroform] | – | – | dramatic inhibition in methane production
